One series has as its system P. aeruginosa. The series can be described thus: MIC by broth microdilution (EUCAST). In kind it is cell-based. The settings on record: Pseudomonas aeruginosa, ATCC27853; P. aeruginosa ATCC 27853, MHB, overnight 37 °C; read-out: Minimum inhibitory concentration (MIC90) P. aeruginosa. The method, then: (§1) The Gram-negative bacterial strain E. coli CECT 101 and P. aeruginosa ATCC 27853 were supplied by The Colección Española de Cultivos Tipo (CECT, Valencia, Spain) and the American Type Culture Collection (ATCC, Rockville, MD, USA). The Gram-positive bacterial strain S. aureus ATCC 25923, E. faecalis ATCC 29212 and the fungal strain C. albicans ATCC 1023 were supplied by The American Type Culture Collection (ATCC, Maryland, USA). Bacterial and yeast growth was carried out aerobically overnight at 35 °C in Mueller Hinton agar and Sabouraud dextrose agar, respectively (Scharlau, Spain).
(§2) The MIC of the compounds 1a–d, 2a–d, and 3a–d was determined by a broth microdilution method according to the EUCAST protocol. Briefly, 0.5 McFarland bacterial and fungal suspensions were prepared in Müeller Hinton broth (MHB) and Sabouraud dextrose broth (SDB) media, respectively. In a 96-well plate, serial dilutions of compounds 1a–d, 2a–d, 3a–d starting from 512 to 0 μg mL^−1 were made in MHB and SDB media, respectively. After incubation overnight at 37 °C, results were evaluated according to turbidity. Bacterial growth was determined by measuring absorbance at a wavelength of 600 nm and at 520 nm for fungi.[53–55]
On the technique in general: Dilution methods test growth across graded concentrations, often in twofold steps.

The subject of series [1] is S. aureus. The series can be described thus: MIC by broth microdilution (EUCAST). In kind it is cell-based. To be noted: Staphylococcus aureus, ATCC25923; S. aureus ATCC 25923, MHB, overnight 37 °C; read-out: Minimum inhibitory concentration (MIC90) S. aureus. Here is the method:
as §1, §2

The test system of series [2] is E. coli. Briefly: MIC by broth microdilution (EUCAST). In kind it is cell-based. The settings on record: Escherichia coli, CECT101; E. coli CECT 101, MHB, overnight 37 °C; read-out: Minimum inhibitory concentration (MIC90) E. coli. Here is the method:
as §1, §2

For a further series, the system named is E. faecalis. Briefly: MIC by broth microdilution (EUCAST). In kind it is cell-based, Enterococcus faecalis. To be noted: E. faecalis ATCC 29212, MHB, overnight 37 °C, read-out: Minimum inhibitory concentration (MIC90) E. faecalis. Here is the method:
as §1, §2

For the next series, the system named is red blood cells. Briefly: Lysis (hemolysis) assay. In kind it is cell-based. The settings on record: human erythrocytes, 1 hour, 37 °C, 1% DMSO. Here is the method:
The hemolysis test was performed following literature procedures.[14] Preparation of the erythrocyte suspension: human blood (6 mL) was transferred to a Falcon tube. The sample was then centrifuged at 10 000 rpm for 10 minutes. After centrifugation, the supernatant was discarded, and the cells were resuspended in 4 mL of 10 mM PBS. This centrifugation and resuspension process was repeated twice to remove plasma residues. Finally, the resulting cell suspension was diluted at a 1 : 20 ratio with 10 mM PBS. Hemolysis assay: a total of 500 μL of the prepared erythrocyte suspension was aliquoted into Eppendorf tubes according to the experimental conditions. The final DMSO concentration in each condition was adjusted to 1%. A 1% Triton™ X-100 solution was used as the positive control (100% hemolysis), while the negative control consisted of erythrocytes suspended in PBS with 1% DMSO (0% hemolysis). Samples were incubated at 37 °C with shaking at 200 rpm for 1 hour. Following incubation, the samples were centrifuged at 10 000 rpm for 10 minutes. Subsequently, 200 μL of the supernatant was collected and transferred to a 96-well plate. Absorbance was measured at 520 nm using a plate reader.

Series [3] has as its system C. albicans. Briefly: MIC by broth microdilution (EUCAST). The settings on record: overnight 37 °C, read-out: Minimum inhibitory concentration (MIC90) C. albicans. In kind it is cell-based, Candida albicans. The method, then: as §1, §2
Series [4] concerns C. albicans. To be noted: cited from earlier work.
Series [5] has as its system C. albicans. Briefly: Mitochondrial membrane depolarization, DiOC6(3) staining, flow cytometry. In kind it is cell-based, Candida albicans. To be noted: 3.5 hours. (Flow cytometry measures light scatter and fluorescence of single cells or particles in a stream.)
Experimental: Cultures of C. albicans were incubated with the fluorescent probe DiOC6(3), which typically accumulates in mitochondria due to the high membrane potential when the organelle works properly. Flow cytometry was used to measure the fluorescence intensity of the accumulated dye, establishing a baseline control (see “control” in Fig. 4).
To evaluate mitochondrial function in C. albicans by DiOC6 staining, the yeast cells were initially cultivated overnight in Sabouraud broth. The cultures were then transferred to a fresh medium, adjusting the OD600 to 0.1. […] The cultures were incubated for 3.5 hours with orbital shaking at 37 °C. After this period, the OD of each culture was standardized to 0.06 using the corresponding spent medium. Cells were subsequently stained with 0.3 μM DiOC6 for 20 minutes. Assays were performed in triplicate. Analysis was conducted using a BD Accuri™ C6 flow cytometer.
In series [6] the test system is E. coli. The settings on record: cited from earlier work.
The test system of series [7] is S. aureus. The settings on record: cited from earlier work.
[8] abbreviates: Enterococcus faecalis, ATCC29212.
The mark [9] stands for this setting: Candida albicans, ATCC1023, C. albicans ATCC 1023, SDB.

≈ marks a conversion by molar mass, not a printed value. Where two headings read alike, the source gives them in different places.

For `CCCCCCCCCCCC[n+]1c(-c2ccc(Br)cc2)cc(-c2ccc(Br)cc2)cc1-c1ccc(Br)cc1` [2d], the MIC90 is greater than 160 µM with P. aeruginosa; 40 µM in the series with S. aureus [1]; greater than 320 µM in the series on E. coli [2]; 40 µM in the series on E. faecalis (setting [8]); greater than 160 µM in the series on C. albicans [3] (setting [9]). Besides, the Lysis20 in the series on red blood cells amounted to 42 µM.
For `Brc1ccc(-c2cc(-c3ccc(Br)cc3)[n+](CCCCCCCCCC[n+]3c(-c4ccc(Br)cc4)cc(-c4ccc(Br)cc4)cc3-c3ccc(Br)cc3)c(-c3ccc(Br)cc3)c2)cc1` [1d], the MIC90 in the series with P. aeruginosa was greater than 91 µM; in the series on S. aureus [1] it was 11 µM; in the series with E. coli [2], 46 µM; in the series with E. faecalis, 6.0 µM; with E. faecalis (setting [8]) it was 6 µM; with C. albicans [3] (C. albicans ATCC 1023, SDB) it was greater than 91 µM. For the same molecule, the MIC90 in the series with C. albicans [3] (setting [9]) was greater than 91 µM. The molecule further showed a Lysis20 in the series on red blood cells greater than 256 µM.
For the molecule `COc1ccc2cc3[n+](cc2c1OC)CCc1cc2c(cc1-3)OCO2` [berberine], in the series on C. albicans [4], the MIC was 24 µM.
For the molecule `CCC[n+]1c(-c2ccc(Br)cc2)cc(-c2ccc(Br)cc2)cc1-c1ccc(Br)cc1` [3d], the MIC90 in the series on P. aeruginosa was greater than 190 µM; in the series with S. aureus [1], 48 µM; with E. coli [2], greater than 380 µM; with E. faecalis (setting [8]), 24 µM. The same molecule returned a Lysis20 with red blood cells greater than 256 µM. Moreover, the MIC in the series on C. albicans [3] (setting [9]) was greater than 90 µM.
For the molecule `CCCCCCCCCCCC[n+]1c(-c2ccccc2)cc(-c2ccc(Br)cc2)cc1-c1ccccc1` [2b], the MIC90 was greater than 200 µM in the series on P. aeruginosa, 12 µM in the series with S. aureus [1], 25 µM in the series on E. coli [2] and 24 µM with E. faecalis (setting [8]). The same molecule registered a Lysis20 in the series with red blood cells of 26 µM.
With `CCCCCCCCCCCC[n+]1c(-c2ccccc2)cc(-c2ccccc2)cc1-c1ccccc1` [2a], the MIC90 with P. aeruginosa was greater than 112 µM; in the series with S. aureus [1] it was 28 µM; in the series with E. coli [2], 28 µM; in the series with E. faecalis (setting [8]) it was 3.6 µM; with C. albicans [3] (C. albicans ATCC 1023, SDB), 3.6 µM; with C. albicans [3] (setting [9]) it was 2.2 to 6.2 µM. In the series on red blood cells, this molecule came in with a Lysis20 of 31 µM.
Consider `CCCCCCCCN=c1ccn(CCCCCCCCCCn2ccc(=NCCCCCCCC)cc2)cc1` [OCT, octenidine], for which the MIC with C. albicans [4] was 2.93 µM (≈ 1.61 µg/mL).
Turning to `Brc1ccc(-c2cc(-c3ccccc3)[n+](CCCCCCCCCC[n+]3c(-c4ccccc4)cc(-c4ccc(Br)cc4)cc3-c3ccccc3)c(-c3ccccc3)c2)cc1` [1b], the MIC90 worked out at 30 µM with P. aeruginosa; 7.6 µM in the series on S. aureus [1]; 7.6 µM in the series on E. coli [2]; 1 µM in the series on E. faecalis (setting [8]); 118 µM with C. albicans [3] (setting [9]). Moreover, the Lysis20 with red blood cells worked out at 20 µM.
On to `c1ccc(-c2cc(-c3ccccc3)[n+](CCCCCCCCCC[n+]3c(-c4ccccc4)cc(-c4ccccc4)cc3-c3ccccc3)c(-c3ccccc3)c2)cc1` [1a], for which the MIC90 in the series on P. aeruginosa is 70 µM; in the series with S. aureus [1] it was 4.4 µM; in the series on E. coli [2] it was 4.4 µM; in the series with E. faecalis (setting [8]), 1.1 µM; with C. albicans [3] (C. albicans ATCC 1023, SDB), 2.2 µM; with C. albicans [3] (setting [9]), 2.2 to 6.2 µM. The molecule also registered a Lysis20 in the series with red blood cells of 45 µM. Moreover, in the series on C. albicans [5] (compound at 6 μM), the “DiOC6(3) fluorescence intensity relative to control” value is “about one-tenth”.
For the molecule `CCC[n+]1c(-c2ccc(Br)cc2)cc(-c2ccccc2)cc1-c1ccc(Br)cc1` [3c], the MIC90 with P. aeruginosa was greater than 215 µM; with S. aureus [1] it was 54 µM; in the series with E. coli [2] it was greater than 430 µM; in the series with E. faecalis (setting [8]) it was 54 µM; in the series with C. albicans [3] (setting [9]) it was greater than 215 µM. The molecule also came in with a Lysis20 in the series with red blood cells greater than 256 µM.
As to `Cc1cc(N)c2ccccc2[n+]1CCCCCCCCCC[n+]1c(C)cc(N)c2ccccc21` [DQA, dequalinium chloride], the MIC with E. coli [6] was 121 µM; with C. albicans [4] it was 5.5 µM; in the series on S. aureus [7] it was 2.4 µM.
Regarding benzalkonium chloride [BAC], the results for the MIC in the series on E. coli [6] and with S. aureus [7] were 63 µM and 4 µM, respectively.
On to `Brc1ccc(-c2cc(-c3ccccc3)cc(-c3ccc(Br)cc3)[n+]2CCCCCCCCCC[n+]2c(-c3ccc(Br)cc3)cc(-c3ccccc3)cc2-c2ccc(Br)cc2)cc1` [1c], for which the MIC90 in the series with P. aeruginosa is greater than 103 µM; with S. aureus [1], 13 µM; in the series with E. coli [2] it was greater than 103 µM; in the series with E. faecalis (setting [8]), 13 µM; in the series with C. albicans [3] (setting [9]), greater than 103 µM. This molecule gave a Lysis20 in the series with red blood cells of 27 µM.
As to `CCC[n+]1c(-c2ccccc2)cc(-c2ccc(Br)cc2)cc1-c1ccccc1` [3b], the MIC90 was greater than 248 µM in the series with P. aeruginosa; 31 µM in the series with S. aureus [1]; greater than 496 µM with E. coli [2]; 124 µM in the series with E. faecalis (setting [8]); greater than 248 µM with C. albicans [3] (setting [9]). For the same molecule, in the series with red blood cells, the Lysis20 is greater than 256 µM.
Regarding `N#CC(C#N)=NNc1ccc(OC(F)(F)F)cc1` [FCCP, carbonyl cyanide-4-(trifluoromethoxy)phenylhydrazone, reference compound], the “DiOC6(3) fluorescence intensity relative to control” value in the series on C. albicans [5] (compound at 30 μM) is reported as “approximately half”.
Take `CCCCCCCCCCCC[n+]1c(-c2ccc(Br)cc2)cc(-c2ccccc2)cc1-c1ccc(Br)cc1` [2c]: the MIC90 is greater than 178 µM in the series on P. aeruginosa; 22 µM with S. aureus [1]; 178 µM in the series with E. coli [2]; 11 µM in the series on E. faecalis (setting [8]); 178 µM in the series with C. albicans [3] (setting [9]). Further, in the series on red blood cells, the Lysis20 came out at 26 µM.
For the molecule `CCC[n+]1c(-c2ccccc2)cc(-c2ccccc2)cc1-c1ccccc1` [3a], the MIC90 in the series on P. aeruginosa is greater than 293 µM; with S. aureus [1] it was 146 µM; in the series with E. coli [2], greater than 585 µM; in the series with E. faecalis (setting [8]), greater than 293 µM; in the series on C. albicans [3] (setting [9]), greater than 293 µM. Further, the Lysis20 in the series on red blood cells is greater than 256 µM. In addition, in the series on C. albicans [5] (compound at 6 μM), the “DiOC6(3) fluorescence intensity relative to control” value was “normal DiOC6(3) accumulation”.

Source of the values: publication PMC11969996, “Minimalistic bis-triarylpyridinium cations: effective antimicrobials against bacterial and fungal pathogens” (RSC Medicinal Chemistry, 2025).
